# Reference: patent US20240158370A1, “CK1 alpha AND DUAL CK1 alpha / GSPT1 DEGRADING COMPOUNDS” (Innovo Therapeutics, Inc., priority 2022, published 2024)
# Columns and labels:
# GSPT1 = GSPT1 (Homo sapiens, UniProt P15170+Q96SW2); experiment: HiBiT degradation assay, GSPT1, Procedure A; assay type: cell-based; set-up: HiBit-GSPT1 KI HEK293(LgBit) Cells; host or cells: HEK293(LgBit) knock-in cells; details: six hours
# Outline: (§1)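 DC50 and Ymin (% remaining) were derived by four-parameter fitting of luminescence data. The data come from a six-hour, 37° C compound exposure of cells in DMEM/10% FBS over a ten-point range, 10 μM to 0.005 μM, followed by Nano-Glo HiBiT lytic detection.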
# CK1α = target: T1, CK1α (Homo sapiens, UniProt P48729+Q96SW2); experiment: HiBiT degradation assay, CK1α, Procedure A; assay type: cell-based; details: six hours
# T1 construct: CSNK1A1-HiBit KI HEK293(LgBit) Cells; host or cells: HEK293(LgBit) knock-in cells
# Outline: as §1
# Chain of GSPT1 (P15170 whole entry): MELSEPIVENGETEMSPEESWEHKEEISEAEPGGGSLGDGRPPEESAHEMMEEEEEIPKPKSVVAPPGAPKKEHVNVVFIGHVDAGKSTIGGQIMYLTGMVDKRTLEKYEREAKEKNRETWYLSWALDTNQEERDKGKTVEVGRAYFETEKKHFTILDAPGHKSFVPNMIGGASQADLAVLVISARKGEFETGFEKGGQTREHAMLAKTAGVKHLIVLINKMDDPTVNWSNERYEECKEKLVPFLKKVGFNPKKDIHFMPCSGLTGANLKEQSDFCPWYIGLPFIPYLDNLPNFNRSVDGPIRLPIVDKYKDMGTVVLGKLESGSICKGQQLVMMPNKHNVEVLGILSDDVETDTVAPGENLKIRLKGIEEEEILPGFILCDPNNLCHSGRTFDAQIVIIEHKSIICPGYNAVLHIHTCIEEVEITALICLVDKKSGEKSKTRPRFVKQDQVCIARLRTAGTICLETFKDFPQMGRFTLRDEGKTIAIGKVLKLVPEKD
# Chain of GSPT1 (Q96SW2 whole entry): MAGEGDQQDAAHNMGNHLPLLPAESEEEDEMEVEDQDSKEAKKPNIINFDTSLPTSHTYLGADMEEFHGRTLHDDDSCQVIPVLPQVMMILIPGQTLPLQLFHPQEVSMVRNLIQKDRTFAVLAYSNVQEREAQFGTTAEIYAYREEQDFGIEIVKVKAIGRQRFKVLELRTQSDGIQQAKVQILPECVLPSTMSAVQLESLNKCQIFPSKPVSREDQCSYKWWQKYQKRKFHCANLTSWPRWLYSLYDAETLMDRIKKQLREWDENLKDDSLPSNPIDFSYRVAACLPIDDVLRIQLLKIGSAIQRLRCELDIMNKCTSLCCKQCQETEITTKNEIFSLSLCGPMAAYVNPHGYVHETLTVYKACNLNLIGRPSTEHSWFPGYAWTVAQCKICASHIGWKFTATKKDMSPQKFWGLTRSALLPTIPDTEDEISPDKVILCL
# Chain of GSPT1 (Q16531 whole entry partner): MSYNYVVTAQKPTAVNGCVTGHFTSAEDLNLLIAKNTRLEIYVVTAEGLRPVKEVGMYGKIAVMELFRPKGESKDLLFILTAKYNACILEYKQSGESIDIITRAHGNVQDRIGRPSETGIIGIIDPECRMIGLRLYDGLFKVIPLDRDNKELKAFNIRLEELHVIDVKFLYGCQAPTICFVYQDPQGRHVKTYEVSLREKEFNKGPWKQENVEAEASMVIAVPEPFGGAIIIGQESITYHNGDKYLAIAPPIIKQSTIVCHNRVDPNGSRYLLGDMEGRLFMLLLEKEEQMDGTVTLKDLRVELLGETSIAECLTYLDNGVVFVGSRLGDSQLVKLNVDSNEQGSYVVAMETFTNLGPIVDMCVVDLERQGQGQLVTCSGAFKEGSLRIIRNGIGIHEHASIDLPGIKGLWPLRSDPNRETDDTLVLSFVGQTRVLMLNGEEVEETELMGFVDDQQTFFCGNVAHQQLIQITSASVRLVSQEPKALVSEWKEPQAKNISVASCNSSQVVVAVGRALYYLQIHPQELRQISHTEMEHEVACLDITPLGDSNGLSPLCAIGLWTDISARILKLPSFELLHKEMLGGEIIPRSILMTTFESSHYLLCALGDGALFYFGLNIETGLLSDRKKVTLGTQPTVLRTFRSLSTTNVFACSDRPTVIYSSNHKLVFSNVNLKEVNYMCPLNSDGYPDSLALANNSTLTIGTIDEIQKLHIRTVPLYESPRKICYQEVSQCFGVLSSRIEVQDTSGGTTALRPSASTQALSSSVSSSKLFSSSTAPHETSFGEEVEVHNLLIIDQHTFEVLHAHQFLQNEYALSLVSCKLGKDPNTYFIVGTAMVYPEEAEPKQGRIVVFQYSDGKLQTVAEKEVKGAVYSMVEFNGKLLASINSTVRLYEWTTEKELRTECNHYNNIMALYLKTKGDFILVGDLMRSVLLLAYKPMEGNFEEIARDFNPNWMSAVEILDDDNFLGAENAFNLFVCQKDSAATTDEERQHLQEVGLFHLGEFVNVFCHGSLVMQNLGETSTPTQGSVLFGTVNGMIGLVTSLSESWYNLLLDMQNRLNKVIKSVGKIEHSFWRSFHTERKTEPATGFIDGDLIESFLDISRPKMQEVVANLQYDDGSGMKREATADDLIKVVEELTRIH
# T1 sequence (P48729 whole entry): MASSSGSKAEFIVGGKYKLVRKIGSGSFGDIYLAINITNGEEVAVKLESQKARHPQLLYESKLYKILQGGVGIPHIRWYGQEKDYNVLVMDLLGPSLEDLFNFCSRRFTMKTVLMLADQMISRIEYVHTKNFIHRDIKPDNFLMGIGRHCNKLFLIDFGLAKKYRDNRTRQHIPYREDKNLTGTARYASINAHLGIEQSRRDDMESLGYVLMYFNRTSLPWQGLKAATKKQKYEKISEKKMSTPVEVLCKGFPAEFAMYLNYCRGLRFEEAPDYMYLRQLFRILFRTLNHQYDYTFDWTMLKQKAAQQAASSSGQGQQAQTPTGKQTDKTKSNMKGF
# T1 sequence (Q96SW2 whole entry): as the sequence (Q96SW2 whole entry) above
# T1 sequence (Q16531 whole entry partner): as the sequence (Q16531 whole entry partner) above
DC50 (GSPT1) [nM],GSPT1 Ymin (GSPT1),CK1α Ymin (CK1α),DC50 (CK1α) [nM],SMILES
≥ 25,F (F = >75-100% remaining),D (D = >10- 25% remaining),< 25,"COc1ccc(-c2c(-c3ccc4c(c3)CN(C3CCC(=O)NC3=O)C4=O)cnn2C(F)F)cc1F (stereo not drawn) [Example 417, 3-(5-(1-(difluoromethyl)-5-(3-fluoro-4-methoxyphenyl)-1H-pyrazol-4-yl)-1-oxoisoindolin-2-yl)piperidine-2,6-dione]"
≥ 25,E (E = >25-75% remaining),C (C = 0-10% remaining),< 25,"COc1ccc(-c2c(-c3ccc4c(c3)CN(C3CCC(=O)NC3=O)C4=O)cnn2C(F)F)cc1 (stereo not drawn) [Example 418, 3-(5-(1-(difluoromethyl)-5-(4-methoxyphenyl)-1H-pyrazol-4-yl)-1-oxoisoindolin-2-yl)piperidine-2,6-dione]"
≥ 25,F (F = >75-100% remaining),C (C = 0-10% remaining),< 25,"Cn1c(C2OCCCO2)nc(-c2ccc3c(c2)CN(C2CCC(=O)NC2=O)C3=O)c1-c1ccccc1 (stereo not drawn) [Example 419, 3-(5-(2-(1,3-dioxan-2-yl)-1-methyl-5-phenyl-1H-imidazol-4-yl)-1-oxoisoindolin-2-yl)piperidine-2,6-dione]"
≥ 25,F (F = >75-100% remaining),C (C = 0-10% remaining),< 25,"Cn1c(C2CCOCC2)nc(-c2ccc3c(c2)CN(C2CCC(=O)NC2=O)C3=O)c1-c1cccnc1 (stereo not drawn) [Example 420, 3-(5-(1-methyl-5-(pyridin-3-yl)-2-(tetrahydro-2H-pyran-4-yl)-1H-imidazol-4-yl)-1-oxoisoindolin-2-yl)piperidine-2,6-dione]"
≥ 25,F (F = >75-100% remaining),D (D = >10- 25% remaining),< 25,"O=C1CCC(N2Cc3cc(-c4cn(C(F)F)nc4-c4ccc5c(c4)CCO5)ccc3C2=O)C(=O)N1 (stereo not drawn) [Example 423, 3-(5-(1-(difluoromethyl)-3-(2,3-dihydrobenzofuran-5-yl)-1H-pyrazole-4-yl)-1-oxoisoindolin-2-yl)piperidine-2,6-dione]"
≥ 25,F (F = >75-100% remaining),D (D = >10- 25% remaining),< 25,"O=C1CCC(N2Cc3cc(-c4cnn(C(F)F)c4-c4ccc5c(c4)CCO5)ccc3C2=O)C(=O)N1 (stereo not drawn) [Example 424, 3-(5-(1-(difluoromethyl)-5-(2,3-dihydrobenzofuran-5-yl)-1H-pyrazol-4-yl)-1-oxoisoindolin-2-yl)piperidine-2,6-dione]"
≥ 25,–,D (D = >10- 25% remaining),< 25,"COc1ccc(-c2nn(C(F)F)cc2-c2ccc3c(c2)CN(C2CCC(=O)NC2=O)C3=O)c(Cl)c1 (stereo not drawn) [Example 425, 3-(5-(3-(2-chloro-4-methoxyphenyl)-1-(difluoromethyl)-1H-pyrazol-4-yl)-1-oxoisoindolin-2-yl)piperidine-2,6-dione]"
≥ 25,F (F = >75-100% remaining),D (D = >10- 25% remaining),< 25,"CC(C)n1ncc(-c2ccc3c(c2)CN(C2CCC(=O)NC2=O)C3=O)c1-c1ccccc1 (stereo not drawn) [Example 426, 3-(5-(1-isopropyl-5-phenyl-1H-pyrazol-4-yl)-1-oxoisoindolin-2-yl)piperidine-2,6-dione]"
≥ 25,F (F = >75-100% remaining),C (C = 0-10% remaining),< 25,"O=C1CCC(N2Cc3cc(-c4cn(CC(F)(F)F)nc4-c4ccccc4)ccc3C2=O)C(=O)N1 (stereo not drawn) [Example 427, 3-(1-oxo-5-(3-phenyl-1-(2,2,2-trifluoroethyl)-1H-pyrazol-4-yl)isoindolin-2-yl)piperidine-2,6-dione]"
≥ 25,F (F = >75-100% remaining),C (C = 0-10% remaining),< 25,"Cn1ncc(-c2ccc3c(c2)CN(C2CCC(=O)NC2=O)C3=O)c1-c1ccc2c(c1)OC(F)(F)O2 (stereo not drawn) [Example 428, 3-(5-(5-(2,2-difluorobenzo[d][1,3]dioxol-5-yl)-1-methyl-1H-pyrazol-4-yl)-1-oxoisoindolin-2-yl)piperidine-2,6-dione]"
< 25,F (F = >75-100% remaining),D (D = >10- 25% remaining),< 25,"CCn1ncc(-c2ccc3c(c2)CN(C2CCC(=O)NC2=O)C3=O)c1-c1ccccc1 (stereo not drawn) [Example 429, 3-(5-(1-ethyl-5-phenyl-1H-pyrazol-4-yl)-1-oxoisoindolin-2-yl)piperidine-2,6-dione]"
≥ 25,F (F = >75-100% remaining),D (D = >10- 25% remaining),< 25,"O=C1CCC(N2Cc3cc(-c4cnn(CC(F)F)c4-c4ccccc4)ccc3C2=O)C(=O)N1 (stereo not drawn) [Example 430, 3-(5-(1-(2,2-difluoroethyl)-5-phenyl-1H-pyrazol-4-yl)-1-oxoisoindolin-2-yl)piperidine-2,6-dione]"
≥ 25,F (F = >75-100% remaining),C (C = 0-10% remaining),< 25,"[2H]C([2H])([2H])n1ncc(-c2ccc3c(c2)CN(C2CCC(=O)NC2=O)C3=O)c1-c1ccc(OC)c(F)c1 (stereo not drawn) [Example 431, 3-(5-(5-(3-fluoro-4-methoxyphenyl)-1-(methyl-d3)-1H-pyrazol-4-yl)-1-oxoisoindolin-2-yl)piperidine-2,6-dione]"
≥ 25,F (F = >75-100% remaining),C (C = 0-10% remaining),< 25,"[2H]C([2H])([2H])n1ncc(-c2ccc3c(c2)CN(C2CCC(=O)NC2=O)C3=O)c1-c1ccc2c(c1)CCO2 (stereo not drawn) [Example 432, 3-(5-(5-(2,3-dihydrobenzofuran-5-yl)-1-(methyl-d3)-1H-pyrazol-4-yl)-1-oxoisoindolin-2-yl)piperidine-2,6-dione]"
≥ 25,F (F = >75-100% remaining),C (C = 0-10% remaining),< 25,"[2H]C([2H])([2H])n1ncc(-c2ccc3c(c2)CN(C2CCC(=O)NC2=O)C3=O)c1-c1ccc(OC)cc1 (stereo not drawn) [Example 433, 3-(5-(5-(4-methoxyphenyl)-1-(methyl-d3)-1H-pyrazol-4-yl)-1-oxoisoindolin-2-yl) piperidine-2,6-dione]"
≥ 25,F (F = >75-100% remaining),C (C = 0-10% remaining),< 25,"[2H]C([2H])([2H])n1ncc(-c2ccc3c(c2)CN(C2CCC(=O)NC2=O)C3=O)c1-c1ccc(OC)cc1Cl (stereo not drawn) [Example 434, 3-(5-(5-(2-chloro-4-methoxyphenyl)-1-(methyl-d3)-1H-pyrazol-4-yl)-1-oxoisoindolin-2-yl)piperidine-2,6-dione]"
< 25,F (F = >75-100% remaining),E (E = >25-75% remaining),< 25,"[2H]C([2H])([2H])n1ncc(-c2ccc3c(c2)CN(C2CCC(=O)NC2=O)C3=O)c1-c1ccc(OC(F)(F)F)cc1 (stereo not drawn) [Example 435, 3-(5-(1-(methyl-d3)-5-(4-(trifluoromethoxy)phenyl)-1H-pyrazol-4-yl)-1-oxoisoindolin-2-yl) piperidine-2,6-dione]"
≥ 25,F (F = >75-100% remaining),D (D = >10- 25% remaining),< 25,"[2H]C([2H])([2H])n1ncc(-c2ccc3c(c2)CN(C2CCC(=O)NC2=O)C3=O)c1-c1ccc(OC(F)F)cc1 (stereo not drawn) [Example 436, 3-(5-(5-(4-(difluoromethoxy)phenyl)-1-(methyl-d3)-1H-pyrazol-4-yl)-1-oxoisoindolin-2-yl)piperidine-2,6-dione]"
< 25,F (F = >75-100% remaining),C (C = 0-10% remaining),< 25,"[2H]C([2H])([2H])n1cc(-c2ccc3c(c2)CN(C2CCC(=O)NC2=O)C3=O)nc1-c1ccccc1 (stereo not drawn) [Example 437, 3-(5-(1-(methyl-d3)-2-phenyl-1H-imidazol-4-yl)-1-oxoisoindolin-2-yl)piperidine-2,6-dione]"
≥ 25,F (F = >75-100% remaining),E (E = >25-75% remaining),≥ 25,Cn1ncc(-c2ccc3c(c2)CN(C2CCC(=O)NC2=O)C3=O)c1-c1ccc(F)cc1C#N (stereo not drawn) [Example 438]
< 25,E (E = >25-75% remaining),C (C = 0-10% remaining),< 25,Cn1cnc(-c2ccc3c(c2)CN(C2CCC(=O)NC2=O)C3=O)c1-c1ccc(N)cc1 (stereo not drawn) [Example 439]
< 25,E (E = >25-75% remaining),C (C = 0-10% remaining),< 25,Cn1cnc(-c2ccc3c(c2)CN(C2CCC(=O)NC2=O)C3=O)c1-c1ccccc1N (stereo not drawn) [Example 440]
< 25,E (E = >25-75% remaining),C (C = 0-10% remaining),< 25,Cn1cnc(-c2ccc3c(c2)CN(C2CCC(=O)NC2=O)C3=O)c1-c1cccc(F)c1 (stereo not drawn) [Example 441]
≥ 25,F (F = >75-100% remaining),E (E = >25-75% remaining),< 25,Cc1cccc(C)c1-c1c(-c2ccc3c(c2)CN(C2CCC(=O)NC2=O)C3=O)ncn1C (stereo not drawn) [Example 442]
< 25,E (E = >25-75% remaining),C (C = 0-10% remaining),< 25,Cn1cnc(-c2ccc3c(c2)CN(C2CCC(=O)NC2=O)C3=O)c1-c1ccc2c(c1)CCO2 (stereo not drawn) [Example 443]
